Data set [1] deals with acute nociception (tail flick). In words: Analgesic study by tail flick method. Type of data set: in vivo, mice. To be noted: Sulindac 100 mg/kg oral; for % Inhibition 30 min / Reaction Time 30 min / % Inhibition 60 min / Reaction Time 60 min / % Inhibition 120 min / Reaction Time 120 min: Compound 8 150 mg/kg; for Reaction Time 30 min / Reaction Time 60 min / Reaction Time 120 min / Reaction Time, Pre-drug: mean ±SEM; for Reaction Time, Pre-drug: pre-drug baseline, groups Compound 8 150 mg/kg. Here is the method:
(§1) All animal experiments used healthy male albino rats (200 g-220 g) and mice. The animals were kept in standard plastic animal cages in groups of six animals each with a 12 hour light and dark cycle. The animals were acclimatized to laboratory conditions for a week prior to the experiments.
In an analgesic study by tail flick method, acute nociception was assessed using a tail flick apparatus (Tail Flick model DS 20 Sorrel Apelex, France). Briefly, each animal was placed in a restrainer 2 min. before treatment and baseline reaction time was measured by focusing an intensity controlled beam of light on the distal one-third portion of the animal's tail. […] A 10 sec cut off time was used in order to prevent tissue damage.
(In general: Hot-plate and tail-flick tests time the reaction to a heat stimulus.)

The test system of a further data set is ethanol-induced ulcer. In words: Ulcer study using 80% ethanol (gastric mucosal damage score). Type of data set: in vivo, rats. To be noted: sulindac 100 mg/kg; for Ulcer Index: mean ±SEM; for % Inhibition (ulcer index): Cmpd 8 150 mg/kg, versus 80% EtOH alone. The procedure: as §1
In an ulcer study of sulindac derivatives using 80% ethanol, the ethanol-induced ulcer model was used to study gastro-protective activity of sulindac derivative Compound 8. Rats were grouped into five groups (n=6). Group I received 80% ethanol only and served as an ulcer control. Group II received 80% ethanol and sulindac (100 mg/kg) orally. […] Animals in Group IV received sulindac (100 mg/kg body weight) without any ethanol. […] Animals of all Groups were sacrificed 1 hour later under anesthesia and their stomachs were quickly removed for further studies. The stomach was opened along the greater curvature, washed with distilled water and cleaned gently by dipping in saline. The mucosal damage was assessed according to the following scoring system: redness=0.5, spot ulcer=1.0, hemorrhagic streaks=1.5, ulcer>3 but<5=2.0, ulcers>5=3.0. The mean score of each treated group minus the mean score of the control group was taken as the severity index of gastric mucosal damage. Results were calculated by ANOVA followed by Dunnett's multiple comparison test and are summarized in Table 7, represent mean±SEM; ***=p<0.001 (n=6).

Data set [2] relates to gastric lesions induced by indomethacin. In words: Gastric lesions induced by indomethacin. Type of data set: in vivo, rats. To be noted: for Ulcer Index: rats given indomethacin 30 mg/kg oral, Sulindac 100 mg/kg, Compound 8 150 mg/kg half an hour before, mean ±SEM. The procedure:
as §1
In a study of the effect of sulindac derivatives on gastric lesions induced by indomethacin, a suspension of indomethacin in 1.0% carboxymethylcellulose (CMC) in water (6 mg/mL) at a dose of (30 mg/kg) body weight was administered orally to rats. Control rats were treated with the vehicle. Sulindac derivative Compound 8 was administered half an hour prior to indomethacin administration at a dose of 150 mg/kg.

Data set [3] has as its system non-protein sulfhydryls (NP-SH). As to the kind of experiment: Non-protein sulfhydryls in stomach tissue. Type of data set: in vivo, rats. To be noted: Sulindac 100, Compound 8 150, mean ±SEM. The procedure:
[…] non-protein sulfhydryls (NP-SH) were measured by homogenizing rat stomach tissues in ice cold 0.02 mmol/L ethylenediaminetetraacetic acid (EDTA). Aliquots of 5 mL of the homogenates were mixed in 15 mL test tube with 4 mL of distilled water and 1 mL of 50% trichloroacetic acid (TCA). The test tubes were shaken intermittently for 10 min. and centrifuged at 3000 rpm for 10 min. A total of 2 mL supernatant was mixed with 4 mL of […] tris buffer (pH 8.9). A total of 0.1 mL of 5,5-dithiobis(2-nitrobenzoic acid) ([…]) was added, and the sample was shaken. The absorbance was measured within 5 min. of addition of DTNB at 412 nm and compared to a reagent blank.

A further data set relates to Total Protein (TP). In words: Total protein in gastric juice. Type of data set: in vivo, rats. To be noted: Sulindac 100, Compound 8 150, mean ±SEM. The procedure: Total Protein (TP), or dissolved proteins in gastric juice, was estimated through alcohol precipitation. 90% alcohol was added to gastric juice at a 9:1 ratio, and then 0.1 ml of the alcoholic precipitate of gastric juice was dissolved in 1 ml of 0.1 N NaOH, and 0.05 ml of this suspension was placed in a test tube. 4 ml of an alkaline mixture was then added to the test tube and incubated at room temperature for 10 minutes. 0.4 ml of a phenol reagent was then added, and after a further 10 minutes, once color had developed, a reading was taken against a blank containing distilled water at 610 nm on a spectrophotometer. TP content was then calculated from a standard curve prepared with bovine albumin and expressed as g/L of gastric juice. Results were calculated by ANOVA followed by Dunnett's multiple comparison test and are summarized in Table 9, represent mean±SEM; **=p<0.01; ***=p<0.001 (n=6).

Data set [4] has as its system carrageenan-induced paw edema. In words: Carrageenan induced paw edema. Type of data set: in vivo, rats. To be noted: Sulindac 100 mg/kg oral; for Paw volume before carrageenan: baseline, groups Compound 8 150 mg/kg, in mL (unit assumed). Here is the method: as §1
In a Carrageenan induced paw edema in rats study, Carrageenan sodium salt (0.05 mL of 1% BDH) was injected into the right hind foot of each rat (male or female, 200-220 g) under the plantar aponeurosis. The test group of was treated orally with a Sulindac derivative compound 1 hour before carrageenan injection. At the same time, the control group was given 5 mL/kg of normal saline and the reference group was given 100 mg/kg of an aqueous solution of sulindac. […] Inhibitory activity was calculated using the following:
[formula] where “B” is the mean paw volume of control rats after carrageenan injection, “Y” is the mean paw volume of control rats before the carrageenan injection, “X” is the mean paw volume of treated rats before carrageenan injection, and “A” is the mean paw volume of treated rats after the carrageenan injection.
(In the carrageenan paw model, swelling and tenderness develop within hours.)

A further data set concerns malondialdehyde (MDA). As to the kind of experiment: Determination of malondialdehyde in stomach tissue. To be noted: Sulindac 100, Compound 8 150, mean ±SEM. Type of data set: in vivo, rats. The procedure:
In a study for the determination of malondialdehyde, non-protein sulfhydryls, and total protein, stomach tissues were removed from rats, and each tissue was homogenized in 0.15M KCl to give a 10% w/v homogenate. Aliquots of homogenate (1 mL) were incubated at 37° C. for three hours in a metabolic shaker. Then 1 mL of 10% aqueous trichloroacetic acid was added to the homogenate and mixed. This suspension was then centrifuged at 4000 rpm for 10 min. […] The mixture was cooled and diluted with 1 mL of distilled water. The absorbance of the solution was then read at 535 nm. The content of malondialdehyde (MDA) (nmol/g) was then calculated by reference to a standard curve of MDA solution.

Setting [5] is: with 80% EtOH, Cmpd 8 150 mg/kg oral, sacrificed 1 hour later.
Setting [6] is: Compound 8 150 mg/kg, mean ±SEM.
The mark [7] stands for this setting: 5 hours, Compound 8 150 mg/kg, mean ±SEM.

Marks after values point to notes of the source that are not given here.

Regarding `CC1=C(CC(=O)N/N=C\c2ccc(N(C)C)cc2)c2cc(F)ccc2/C1=C\c1ccc([S+](C)[O-])cc1` (centres unmarked) [Compound 8], in data set [1], the “% Inhibition 30 min” value was 3.33%, the “Reaction Time 30 min” value came out at 4.83 ± 0.30 s, the “% Inhibition 60 min” value is given as 46.66% and the “Reaction Time 60 min” value worked out at 7.33 ± 0.42 s. Besides, in data set [1], the “% Inhibition 120 min” value came to 63.33%; the “Reaction Time 120 min” value worked out at 7.16 ± 0.30 s; the “Reaction Time, Pre-drug” value is 5.00 ± 0.36 s. For the same molecule, in the data set on ethanol-induced ulcer (setting [5]), the “Ulcer Index” value is 4.33 ± 0.4***. The “% Inhibition (ulcer index)” value in the data set on ethanol-induced ulcer (with 80% EtOH) was found to be 40.90%. Also, the “Ulcer Index” value in data set [2] was found to be 22.16 ± 1.10. Moreover, the “% Inhibition (ulcer index)” value in data set [2] (rats given indomethacin 30 mg/kg, Compound 8 150 mg/kg, versus indomethacin alone) came to 40.09%. In data set [3] (drug alone, no ethanol), this molecule showed an NP-SH of 7.52 ± 0.31 nmol/g. The same molecule displayed an NP-SH in data set [3] (with 80% Ethanol 1 mL) of 6.62 ± 0.26 nmol/g. In the data set with Total Protein (TP) (drug alone, no ethanol), the TP is given as 114.57 ± 1.89*** g/L. For the same molecule, the TP in the data set with Total Protein (TP) (with 80% Ethanol 1 mL) was 100.99 ± 2.42*** g/L. The “% Inhibition of paw edema after 3 hours” value in data set [4] (Compound 8 150 mg/kg) is recorded as 50.52%. In data set [4] (setting [6]), the “Increased paw volume after 3 hours, Mean” value amounted to 1.34 ± 0.02 and the “Increased paw volume after 3 hours, Net” value worked out at 0.31 ± 0.03. Also, the “% Inhibition of paw edema after 5 hours” value in data set [4] (5 hours, Compound 8 150 mg/kg) was 50.54%. In data set [4] (setting [7]), the “Increased paw volume after 5 hours, Mean” value stood at 1.33 ± 0.01 and the “Increased paw volume after 5 hours, Net” value was determined as 0.30 ± 0.02. Further, the “Paw volume before carrageenan” value in data set [4] (mean ±SEM) is reported as 1.02 ± 0.02. In the data set on malondialdehyde (MDA) (drug alone, no ethanol), this molecule had an MDA of 1.06 ± 0.02 nmol/g. This molecule came in with an MDA with malondialdehyde (MDA) (with 80% Ethanol 1 mL) of 1.59 ± 0.06 nmol/g.
Turning to `CC1=C(CC(=O)O)c2cc(F)ccc2/C1=C\c1ccc([S+](C)[O-])cc1` (centres unmarked) [Sulindac], in data set [1], the “% Inhibition 30 min” value is 13.79%, the “Reaction Time 30 min” value is 5.50 ± 0.34 s, the “% Inhibition 60 min” value stood at 82.75% and the “Reaction Time 60 min” value is 8.83 ± 0.79 s. Moreover, in data set [1], the “% Inhibition 120 min” value was found to be 127.58%; the “Reaction Time 120 min” value came out at 11.00 ± 0.57 s; the “Reaction Time, Pre-drug” value amounted to 4.83 ± 0.40 s. Besides, the “Ulcer Index” value with ethanol-induced ulcer (drug alone, without ethanol, Compound 8 150 mg/kg oral) amounted to 1.33 ± 0.49. The “Ulcer Index” value with ethanol-induced ulcer (setting [5]) was 6.83 ± 0.40. The “% Inhibition (ulcer index)” value with ethanol-induced ulcer (with 80% EtOH) is 6.81%. For the same molecule, the “Ulcer Index” value in data set [2] is reported as 32.00 ± 3.86. In addition, the NP-SH in data set [3] (drug alone, no ethanol) stood at 7.00 ± 0.032 nmol/g. The molecule also came in with an NP-SH in data set [3] (with 80% Ethanol 1 mL) of 5.08 ± 0.28 nmol/g. Moreover, the TP with Total Protein (TP) (drug alone, no ethanol) is on record as 105.78 ± 1.43*** g/L. Further, the TP in the data set on Total Protein (TP) (with 80% Ethanol 1 mL) is on record as 93.81 ± 3.05*** g/L. Moreover, in data set [4] (Compound 8 150 mg/kg), the “% Inhibition of paw edema after 3 hours” value is on record as 65.18%. For the same molecule, in data set [4] (setting [6]), the “Increased paw volume after 3 hours, Mean” value was found to be 1.26 ± 0.03 and the “Increased paw volume after 3 hours, Net” value is recorded as 0.22 ± 0.01. Further, in data set [4] (5 hours, Compound 8 150 mg/kg), the “% Inhibition of paw edema after 5 hours” value is 65.02%. Moreover, in data set [4] (setting [7]), the “Increased paw volume after 5 hours, Mean” value worked out at 1.25 ± 0.03. In addition, the “Paw volume before carrageenan” value in data set [4] (mean ±SEM) is listed as 1.03 ± 0.03. In addition, the MDA in the data set with malondialdehyde (MDA) (drug alone, no ethanol) was determined as 1.31 ± 0.04 nmol/g. The MDA in the data set with malondialdehyde (MDA) (with 80% Ethanol 1 mL) stood at 2.28 ± 0.11 nmol/g.
